ChEMBL document CHEMBL1152042, “Polyhydroxylated 3-(N-phenyl) carbamoyl-2-iminochromene derivatives as potent inhibitors of tyrosine kinase p60c-src” (Bioorg Med Chem Lett, 1995)

Tests used:
[1] = biological target: Tyrosine-protein kinase Fyn (Homo sapiens, UniProt P06241); experiment: Inhibitory activity against p55 Fyn tyrosine kinase
[2] = biological target: Tyrosine-protein kinase Lyn (Homo sapiens, UniProt P07948); experiment: Inhibitory activity against p56 Lyn tyrosine kinase
[3] = biological target: Proto-oncogene tyrosine-protein kinase Src (Homo sapiens, UniProt P12931); experiment: Inhibitory activity against p60 c-Src tyrosine kinase
[4] = biological target: Tyrosine-protein kinase Lck (Homo sapiens, UniProt P06239); experiment: Inhibitory activity against p56 Lck tyrosine kinase
Sequence of Tyrosine-protein kinase Lck (P06239 whole entry): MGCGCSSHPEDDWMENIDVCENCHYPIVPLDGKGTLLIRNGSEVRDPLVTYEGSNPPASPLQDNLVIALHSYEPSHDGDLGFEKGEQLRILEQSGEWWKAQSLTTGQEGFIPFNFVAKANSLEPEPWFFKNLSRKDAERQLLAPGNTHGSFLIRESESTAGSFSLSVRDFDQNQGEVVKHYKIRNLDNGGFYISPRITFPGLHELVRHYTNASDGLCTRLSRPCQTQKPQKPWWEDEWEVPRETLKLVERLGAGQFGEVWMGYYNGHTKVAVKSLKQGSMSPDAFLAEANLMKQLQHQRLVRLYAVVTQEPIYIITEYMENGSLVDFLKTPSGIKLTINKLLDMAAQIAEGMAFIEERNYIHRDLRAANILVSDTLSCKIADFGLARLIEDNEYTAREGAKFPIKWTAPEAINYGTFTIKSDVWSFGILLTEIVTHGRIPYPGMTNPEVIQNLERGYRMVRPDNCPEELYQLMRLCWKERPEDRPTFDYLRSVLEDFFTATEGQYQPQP

Sequence of Tyrosine-protein kinase Lyn (P07948 whole entry): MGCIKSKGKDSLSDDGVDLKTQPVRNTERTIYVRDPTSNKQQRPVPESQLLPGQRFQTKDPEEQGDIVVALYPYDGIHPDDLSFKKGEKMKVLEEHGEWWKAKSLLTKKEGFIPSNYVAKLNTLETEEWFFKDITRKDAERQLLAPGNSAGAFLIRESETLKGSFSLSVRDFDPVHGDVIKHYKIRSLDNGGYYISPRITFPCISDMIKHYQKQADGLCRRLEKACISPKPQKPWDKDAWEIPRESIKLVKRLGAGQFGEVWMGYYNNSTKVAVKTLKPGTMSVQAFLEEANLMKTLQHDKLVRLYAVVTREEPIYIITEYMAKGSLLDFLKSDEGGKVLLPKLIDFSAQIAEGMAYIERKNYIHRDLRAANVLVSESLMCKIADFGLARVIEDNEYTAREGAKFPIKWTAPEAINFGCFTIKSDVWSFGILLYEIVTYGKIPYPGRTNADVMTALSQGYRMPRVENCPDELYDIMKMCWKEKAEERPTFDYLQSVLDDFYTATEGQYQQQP
Sequence of Tyrosine-protein kinase Fyn (P06241 whole entry): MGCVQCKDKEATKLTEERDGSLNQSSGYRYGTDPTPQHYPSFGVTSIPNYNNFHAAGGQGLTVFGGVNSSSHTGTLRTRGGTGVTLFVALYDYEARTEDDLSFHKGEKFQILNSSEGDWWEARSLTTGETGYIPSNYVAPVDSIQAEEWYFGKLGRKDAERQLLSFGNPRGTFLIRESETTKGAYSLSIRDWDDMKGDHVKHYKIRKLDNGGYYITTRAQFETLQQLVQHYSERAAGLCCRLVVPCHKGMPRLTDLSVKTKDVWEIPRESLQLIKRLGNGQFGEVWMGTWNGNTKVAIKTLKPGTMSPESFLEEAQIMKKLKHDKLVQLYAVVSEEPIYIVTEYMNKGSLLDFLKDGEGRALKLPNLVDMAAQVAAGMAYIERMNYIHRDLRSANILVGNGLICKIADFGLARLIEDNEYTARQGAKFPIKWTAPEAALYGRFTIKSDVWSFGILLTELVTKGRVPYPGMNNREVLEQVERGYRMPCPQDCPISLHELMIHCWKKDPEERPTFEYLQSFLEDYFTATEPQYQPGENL
Sequence of Proto-oncogene tyrosine-protein kinase Src (P12931 2-536 limits assumed): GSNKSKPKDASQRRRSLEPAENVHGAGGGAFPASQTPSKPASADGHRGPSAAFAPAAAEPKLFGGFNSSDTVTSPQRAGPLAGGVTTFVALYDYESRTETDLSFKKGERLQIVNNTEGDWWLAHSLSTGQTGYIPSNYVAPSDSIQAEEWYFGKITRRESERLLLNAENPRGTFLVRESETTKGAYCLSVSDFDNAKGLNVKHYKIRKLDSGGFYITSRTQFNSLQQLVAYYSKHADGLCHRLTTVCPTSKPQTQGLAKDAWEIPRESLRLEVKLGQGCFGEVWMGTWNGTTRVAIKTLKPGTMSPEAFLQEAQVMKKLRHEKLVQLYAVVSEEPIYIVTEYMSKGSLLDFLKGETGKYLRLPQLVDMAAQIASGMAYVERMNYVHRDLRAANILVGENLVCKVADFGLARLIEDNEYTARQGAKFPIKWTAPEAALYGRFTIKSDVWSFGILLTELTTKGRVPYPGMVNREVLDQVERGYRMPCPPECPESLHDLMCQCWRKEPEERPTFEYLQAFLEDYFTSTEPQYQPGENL

| Structure (SMILES) | IC50 [1] | IC50 [2] | IC50 [3] | IC50 [4] |
| --- | --- | --- | --- | --- |
| N=c1oc2c(O)c(O)ccc2cc1C(=O)Nc1ccccc1CO | > 61.3 µM | > 61.3 µM |  |  |
| COc1ccc2cc(C(=O)Nc3ccc(O)cc3)c(=N)oc2c1 |  |  | > 32.2 µM | > 32.2 µM |
| N=c1oc2cc(O)ccc2cc1C(=O)Nc1ccc(O)cc1 |  |  |  | > 33.8 µM |
| N=c1oc2cc(O)ccc2cc1C(=O)Nc1cccc(O)c1 |  |  |  | > 33.8 µM |
| N=c1oc2cc(O)cc(O)c2cc1C(=O)Nc1ccccc1O |  | > 16 µM |  |  |
| N=c1oc2ccccc2cc1C(=O)Nc1ccccc1O |  |  | > 71.4 µM |  |
| N=c1oc2c(O)cccc2cc1C(=O)Nc1ccc(O)cc1 | > 67.5 µM |  |  |  |
| N=c1oc2c(O)c(O)ccc2cc1C(=O)Nc1ccc(O)cc1 | > 64 µM | > 64 µM |  |  |
| N=c1oc2ccc(O)cc2cc1C(=O)Nc1cccc(O)c1 |  |  |  | > 33.8 µM |
| N=c1oc2c(O)c(O)ccc2cc1C(=O)Nc1ccccc1O | > 64 µM | > 64 µM |  |  |
| N=c1oc2c(O)c(O)ccc2cc1C(=O)Nc1ccccc1 | > 67.5 µM | > 67.5 µM | > 67.5 µM | > 67.5 µM |
| N=c1oc2c(O)c(O)ccc2cc1C(=O)Nc1cccc(O)c1 | > 64 µM |  |  |  |
| N=c1oc2c(O)cccc2cc1C(=O)Nc1cccc(CO)c1 | 9.67 µM | 64.5 µM |  |  |
| N=c1oc2c(O)cccc2cc1C(=O)Nc1ccccc1O | > 67.5 µM | > 67.5 µM | > 33.8 µM |  |
| N=c1oc2ccc(O)cc2cc1C(=O)Nc1ccc(O)cc1 |  |  |  | > 33.8 µM |
| N=c1oc2c(O)c(O)ccc2cc1C(=O)Nc1cccc(CO)c1 | > 61.3 µM |  |  | > 61.3 µM |
| N=c1oc2ccccc2cc1C(=O)Nc1ccc(O)cc1 |  |  | > 71.4 µM |  |
| N=c1oc2c(O)cccc2cc1C(=O)Nc1cccc(O)c1 |  | < 33.8 µM |  |  |
